Reference: US20250034216A1, “STEREOSELECTIVE COVALENT LIGANDS FOR ONCOGENIC AND IMMUNOLOGICAL PROTEINS” (The Scripps Research Institute, priority 2021, published 2025)

Legend:
Experiment in all cases: IA-DTB cysteine engagement
Type in all cases: binding
Settings in all cases: 22Rv1 cells, 20 μM probe, 1 h, relative to DMSO
BCKDK_C111 = target: T1, BCKDK_C111 (Homo sapiens, UniProt O14874)
T1 construct: endogenous in cells; host or cells: 22Rv1
Method in brief: (§1)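 Competitive chemoproteomics: residual cysteine reactivity toward IA-DTB in lysates from probe-treated cells was quantified by TMT reporter ions relative to DMSO-treated controls. Replicates sharing cell line, probe, concentration and duration were averaged.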

SLC25A39_C334 = target: T2, SLC25A39_C334 (Homo sapiens, UniProt Q9BZJ4)
T2 construct: endogenous in cells; host or cells: 22Rv1
T2 sequence (Q9BZJ4 1-359): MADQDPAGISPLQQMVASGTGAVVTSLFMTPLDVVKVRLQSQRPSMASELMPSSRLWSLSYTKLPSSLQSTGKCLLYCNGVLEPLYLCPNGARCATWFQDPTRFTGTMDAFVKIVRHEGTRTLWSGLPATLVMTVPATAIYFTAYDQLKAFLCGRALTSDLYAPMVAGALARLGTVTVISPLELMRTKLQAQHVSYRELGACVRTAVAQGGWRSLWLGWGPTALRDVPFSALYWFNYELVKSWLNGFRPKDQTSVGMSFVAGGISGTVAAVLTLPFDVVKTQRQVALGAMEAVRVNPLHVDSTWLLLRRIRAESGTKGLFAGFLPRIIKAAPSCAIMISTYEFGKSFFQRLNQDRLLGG
Method in brief: as §1

NAPIL1_C132 = target: T3, NAPIL1_C132 (Homo sapiens, UniProt P55209)
T3 construct: endogenous in cells; host or cells: 22Rv1
T3 sequence (P55209 1-391): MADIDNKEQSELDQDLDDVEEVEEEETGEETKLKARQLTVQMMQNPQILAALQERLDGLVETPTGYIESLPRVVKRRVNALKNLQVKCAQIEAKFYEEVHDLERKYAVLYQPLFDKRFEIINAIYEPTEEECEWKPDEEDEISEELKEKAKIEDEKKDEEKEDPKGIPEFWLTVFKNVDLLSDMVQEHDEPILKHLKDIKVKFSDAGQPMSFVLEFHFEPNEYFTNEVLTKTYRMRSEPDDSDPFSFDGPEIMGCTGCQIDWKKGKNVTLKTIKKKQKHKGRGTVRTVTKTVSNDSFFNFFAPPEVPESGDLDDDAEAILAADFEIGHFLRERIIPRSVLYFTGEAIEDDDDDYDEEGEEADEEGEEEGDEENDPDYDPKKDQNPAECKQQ
Method in brief: as §1

NSUN3_C298 = target: T4, NSUN3_C298 (Homo sapiens, UniProt Q9H649)
T4 construct: endogenous in cells; host or cells: 22Rv1
T4 sequence (Q9H649 1-340): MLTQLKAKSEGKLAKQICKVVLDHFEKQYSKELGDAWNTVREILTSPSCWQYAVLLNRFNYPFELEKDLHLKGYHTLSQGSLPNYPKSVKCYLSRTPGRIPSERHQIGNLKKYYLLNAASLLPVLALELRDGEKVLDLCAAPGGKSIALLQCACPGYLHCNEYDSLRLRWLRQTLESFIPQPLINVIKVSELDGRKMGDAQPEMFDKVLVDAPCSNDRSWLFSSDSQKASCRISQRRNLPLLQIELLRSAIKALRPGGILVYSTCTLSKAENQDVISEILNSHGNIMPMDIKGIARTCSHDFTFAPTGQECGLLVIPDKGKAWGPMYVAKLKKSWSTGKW
Method in brief: as §1

SMILES	% engagement BCKDK_C111 (BCKDK_C111)	% engagement SLC25A39_C334 (SLC25A39_C334)	% engagement NAPIL1_C132 (NAPIL1_C132)	% engagement NSUN3_C298 (NSUN3_C298)
C=CC(=O)N1C[C@@H](c2ccc(Br)cc2)[C@H]1C(=O)Nc1cccc2cccnc12 [MY-1A, (2S,3R)-1-acryloyl-3-(4-bromophenyl)-N-(quinolin-8-yl)azetidine-2-carboxamide]	17.25%	23%	−21.5%	35.5%
C=CC(=O)N1C[C@H](c2ccc(Br)cc2)[C@@H]1C(=O)Nc1cccc2cccnc12 [MY-1B, (2R,3S)-1-acryloyl-3-(4-bromophenyl)-N-(quinolin-8-yl)azetidine-2-carboxamide]	14.5%	45.5%	6%	55.5%
C=CC(=O)N1C[C@H](c2ccc(Br)cc2)[C@H]1C(=O)Nc1cccc2cccnc12 [MY-3A, (2S,3S)-1-acryloyl-3-(4-bromophenyl)-N-(quinolin-8-yl)azetidine-2-carboxamide]	19.5%	30.5%	25%	38%
C=CC(=O)N1C[C@H](c2ccc(Br)cc2)[C@H]1C(=O)Nc1cccc2cccnc12 [MY-3B, (2S,3S)-1-acryloyl-3-(4-bromophenyl)-N-(quinolin-8-yl)azetidine-2-carboxamide]	76.75%	72%	80%	83%
